Measured values as given in ChEMBL document CHEMBL3045603, “Synthesis and Microbiological Evaluation of Some N-Methyl Piperidone Oxime Ethers” (2005).
Converted amounts (≈) assume the structure as drawn. The source made the active and inactive calls. The calls are words filed in the database; no cut-off is given here.

Key:
[1] = test system: Candida albicans; assay: Antifungal activity against Candida albicans after 72 to 96 hr by two-fold serial dilution method; assay type: functional
[2] = test system: Cryptococcus neoformans; assay: Antifungal activity against Cryptococcus neoformans after 72 to 96 hr by two-fold serial dilution method; assay type: functional
[3] = test system: Rhizopus; assay: Antifungal activity against Rhizopus sp. after 72 to 96 hr by two-fold serial dilution method; assay type: functional
[4] = test system: Aspergillus flavus; assay: Antifungal activity against Aspergillus flavus after 72 to 96 hr by two-fold serial dilution method; assay type: functional
[5] = test system: Aspergillus niger; assay: Antifungal activity against Aspergillus niger after 72 to 96 hr by two-fold serial dilution method; assay type: functional
[6] = test system: Staphylococcus aureus; assay: Antibacterial activity against Staphylococcus aureus after 24 hr by two-fold serial dilution method; assay type: functional
[7] = test system: Pseudomonas aeruginosa; assay: Antibacterial activity against Pseudomonas aeruginosa after 24 hr by two-fold serial dilution method; assay type: functional
[8] = test system: Escherichia coli; assay: Antibacterial activity against Escherichia coli after 24 hr by two-fold serial dilution method; assay type: functional
[9] = test system: Rhizopus; assay: Antifungal activity against Rhizopus sp. at 200 ug/ml after 72 to 96 hr by two-fold serial dilution method; assay type: functional, organism-based
[10] = test system: Klebsiella pneumoniae; assay: Antibacterial activity against Klebsiella pneumoniae at 200 ug/mL after 24 hr by two-fold serial dilution method; assay type: functional, organism-based
[11] = test system: Salmonella typhi; assay: Antibacterial activity against Salmonella enterica subsp. enterica serovar Typhi after 24 hr by two-fold serial dilution method; assay type: functional
[12] = test system: Salmonella typhi; assay: Ratio of ciprofloxacin MIC to compound MIC for Salmonella enterica subsp. enterica serovar Typhi; assay type: functional
[13] = test system: Klebsiella pneumoniae; assay: Ratio of ciprofloxacin MIC to compound MIC for Klebsiella pneumoniae; assay type: functional
[14] = test system: Escherichia coli; assay: Ratio of ciprofloxacin MIC to compound MIC for Escherichia coli; assay type: functional
[15] = test system: Klebsiella pneumoniae; assay: Antibacterial activity against Klebsiella pneumoniae after 24 hr by two-fold serial dilution method; assay type: functional
[16] = test system: Staphylococcus aureus; assay: Ratio of ciprofloxacin MIC to compound MIC Staphylococcus aureus; assay type: functional
[17] = test system: Aspergillus flavus; assay: Antifungal activity against Aspergillus flavus at 200 ug/ml after 72 to 96 hr by two-fold serial dilution method; assay type: functional, organism-based
[18] = test system: Cryptococcus neoformans; assay: Ratio of amphotericin-B MIC to compound MIC for Cryptococcus neoformans; assay type: functional
[19] = test system: Aspergillus niger; assay: Ratio of amphotericin-B MIC to compound MIC for Aspergillus niger; assay type: functional
[20] = test system: Candida albicans; assay: Antifungal activity against Candida albicans at 200 ug/ml after 72 to 96 hr by two-fold serial dilution method; assay type: functional, organism-based

| Compound | MIC [1] [µg/mL] | MIC [2] [µg/mL] | MIC [3] [µg/mL] | MIC [4] [µg/mL] | MIC [5] [µg/mL] | MIC [6] [µg/mL] | MIC [7] [µg/mL] | MIC [8] [µg/mL] | inhibition [9] | inhibition [10] | MIC [11] [µg/mL] | Ratio [12] | Ratio [13] | Ratio [14] | MIC [15] [µg/mL] | Ratio [16] | inhibition [17] | Ratio [18] | Ratio [19] | inhibition [20] |
| --- | --- | --- | --- | --- | --- | --- | --- | --- | --- | --- | --- | --- | --- | --- | --- | --- | --- | --- | --- | --- |
| C[C@@H]1[C@H](O)[C@@H](C)/C=C/C=C/C=C/C=C/C=C/C=C/C=C/[C@H](O[C@@H]2O[C@H](C)[C@@H](O)[C@H](N)[C@@H]2O)C[C@@H]2O[C@](O)(C[C@@H](O)C[C@@H](O)[C@H](O)CC[C@@H](O)C[C@@H](O)CC(=O)O[C@H]1C)C[C@H](O)[C@H]2C(=O)O [AMPHOTERICIN B] | 25 (≈ 27.1 µM) | 25 (≈ 27.1 µM) | 25 (≈ 27.1 µM) | 50 (≈ 54.1 µM) | 50 (≈ 54.1 µM) | – | – | – | – | – | – | – | – | – | – | – | – | – | – | – |
| CC1/C(=N\OCc2ccccc2)CC(c2ccccc2)N(C)C1c1ccccc1 (centres undefined) | 200 (≈ 520 µM) | 100 (≈ 260 µM) | – | 100 (≈ 260 µM) | 50 (≈ 130 µM) | 100 (≈ 260 µM) | 50 (≈ 130 µM) | 100 (≈ 260 µM) | inactive | inactive | 100 (≈ 260 µM) | – | – | – | – | – | – | – | – | – |
| CC1/C(=N\OCc2ccccc2)CC(c2ccc(Cl)cc2)N(C)C1c1ccc(Cl)cc1 (centres undefined) | 100 (≈ 221 µM) | 25 (≈ 55.1 µM) | 100 (≈ 221 µM) | 50 (≈ 110 µM) | 25 (≈ 55.1 µM) | 50 (≈ 110 µM) | 50 (≈ 110 µM) | 12.5 (≈ 27.6 µM) | – | – | 25 (≈ 55.1 µM) | 1 | 1 | 1 | 25 (≈ 55.1 µM) | – | – | – | – | – |
| COc1ccc(C2C/C(=N/OCc3ccccc3)C(C)C(c3ccc(OC)cc3)N2C)cc1 (centres undefined) | 25 (≈ 56.2 µM) | 12.5 (≈ 28.1 µM) | 12.5 (≈ 28.1 µM) | 25 (≈ 56.2 µM) | 25 (≈ 56.2 µM) | 12.5 (≈ 28.1 µM) | 12.5 (≈ 28.1 µM) | 25 (≈ 56.2 µM) | – | – | 50 (≈ 112 µM) | – | 2 | – | 25 (≈ 56.2 µM) | 2 | – | – | – | – |
| CCC1/C(=N\OCc2ccccc2)CC(c2ccccc2)N(C)C1c1ccccc1 (centres undefined) | 100 (≈ 251 µM) | 50 (≈ 125 µM) | 100 (≈ 251 µM) | 100 (≈ 251 µM) | 50 (≈ 125 µM) | 100 (≈ 251 µM) | 25 (≈ 62.7 µM) | 100 (≈ 251 µM) | – | – | 50 (≈ 125 µM) | – | – | – | 200 (≈ 502 µM) | – | – | – | – | – |
| CN1C(c2ccc(Cl)cc2)CC(=NOCc2ccccc2)CC1c1ccc(Cl)cc1 (centres undefined) | 100 (≈ 228 µM) | 50 (≈ 114 µM) | 200 (≈ 455 µM) | 200 (≈ 455 µM) | 100 (≈ 228 µM) | 200 (≈ 455 µM) | 100 (≈ 228 µM) | 50 (≈ 114 µM) | – | – | 100 (≈ 228 µM) | – | – | – | 100 (≈ 228 µM) | – | – | – | – | – |
| COc1ccc(C2CC(=NOCc3ccccc3)CC(c3ccc(OC)cc3)N2C)cc1 (centres undefined) | 100 (≈ 232 µM) | 50 (≈ 116 µM) | 50 (≈ 116 µM) | 50 (≈ 116 µM) | 50 (≈ 116 µM) | 50 (≈ 116 µM) | 100 (≈ 232 µM) | 100 (≈ 232 µM) | – | – | 50 (≈ 116 µM) | – | – | – | 100 (≈ 232 µM) | – | – | – | – | – |
| CC(C)C1/C(=N\OCc2ccccc2)CC(c2ccccc2)N(C)C1c1ccccc1 (centres undefined) | 50 (≈ 121 µM) | 25 (≈ 60.6 µM) | 200 (≈ 485 µM) | – | 100 (≈ 242 µM) | 100 (≈ 242 µM) | 50 (≈ 121 µM) | 50 (≈ 121 µM) | – | – | 50 (≈ 121 µM) | – | – | – | 100 (≈ 242 µM) | – | inactive | – | – | – |
| Cc1ccc(C2C/C(=N/OCc3ccccc3)C(C)C(c3ccc(C)cc3)N2C)cc1 (centres undefined) | 50 (≈ 121 µM) | 12.5 (≈ 30.3 µM) | 25 (≈ 60.6 µM) | 50 (≈ 121 µM) | 25 (≈ 60.6 µM) | 50 (≈ 121 µM) | 25 (≈ 60.6 µM) | 50 (≈ 121 µM) | – | – | 50 (≈ 121 µM) | – | – | – | 50 (≈ 121 µM) | – | – | 2 | 2 | – |
| Cc1ccc(C2CC(=NOCc3ccccc3)CC(c3ccc(C)cc3)N2C)cc1 (centres undefined) | 100 (≈ 251 µM) | 50 (≈ 125 µM) | 50 (≈ 125 µM) | 100 (≈ 251 µM) | 50 (≈ 125 µM) | 100 (≈ 251 µM) | 100 (≈ 251 µM) | 50 (≈ 125 µM) | – | – | 100 (≈ 251 µM) | – | – | – | 100 (≈ 251 µM) | – | – | – | – | – |
| O=C(O)c1cn(C2CC2)c2cc(N3CCNCC3)c(F)cc2c1=O [CIPROFLOXACIN] | – | – | – | – | – | – | – | 25 (≈ 75.4 µM) | – | – | 50 (≈ 151 µM) | – | – | – | – | – | – | – | – | – |
| CN1C(c2ccccc2)CC(=NOCc2ccccc2)CC1c1ccccc1 (centres undefined) | – | 100 (≈ 270 µM) | – | – | 100 (≈ 270 µM) | 200 (≈ 540 µM) | 100 (≈ 270 µM) | 200 (≈ 540 µM) | inactive | inactive | 100 (≈ 270 µM) | – | – | – | – | – | inactive | – | – | inactive |
